Some results are limits rather than exact numbers.

The source of these data is patent US20110177105A1, “Novel Selective Inhibitors of Ubiquitin Specific Protease 7, the Pharmaceutical Compositions Thereof and Their Therapeutic Applications” (priority 2010, published 2011).

For this assay, the target named is T1, USP8 (Homo sapiens, UniProt P40818).
T1 construct: His tag (pFastBac-HT vector); made in house; host or cells: Sf9 or High Five insect cells, baculovirus
T1 sequence (P40818 1-1118): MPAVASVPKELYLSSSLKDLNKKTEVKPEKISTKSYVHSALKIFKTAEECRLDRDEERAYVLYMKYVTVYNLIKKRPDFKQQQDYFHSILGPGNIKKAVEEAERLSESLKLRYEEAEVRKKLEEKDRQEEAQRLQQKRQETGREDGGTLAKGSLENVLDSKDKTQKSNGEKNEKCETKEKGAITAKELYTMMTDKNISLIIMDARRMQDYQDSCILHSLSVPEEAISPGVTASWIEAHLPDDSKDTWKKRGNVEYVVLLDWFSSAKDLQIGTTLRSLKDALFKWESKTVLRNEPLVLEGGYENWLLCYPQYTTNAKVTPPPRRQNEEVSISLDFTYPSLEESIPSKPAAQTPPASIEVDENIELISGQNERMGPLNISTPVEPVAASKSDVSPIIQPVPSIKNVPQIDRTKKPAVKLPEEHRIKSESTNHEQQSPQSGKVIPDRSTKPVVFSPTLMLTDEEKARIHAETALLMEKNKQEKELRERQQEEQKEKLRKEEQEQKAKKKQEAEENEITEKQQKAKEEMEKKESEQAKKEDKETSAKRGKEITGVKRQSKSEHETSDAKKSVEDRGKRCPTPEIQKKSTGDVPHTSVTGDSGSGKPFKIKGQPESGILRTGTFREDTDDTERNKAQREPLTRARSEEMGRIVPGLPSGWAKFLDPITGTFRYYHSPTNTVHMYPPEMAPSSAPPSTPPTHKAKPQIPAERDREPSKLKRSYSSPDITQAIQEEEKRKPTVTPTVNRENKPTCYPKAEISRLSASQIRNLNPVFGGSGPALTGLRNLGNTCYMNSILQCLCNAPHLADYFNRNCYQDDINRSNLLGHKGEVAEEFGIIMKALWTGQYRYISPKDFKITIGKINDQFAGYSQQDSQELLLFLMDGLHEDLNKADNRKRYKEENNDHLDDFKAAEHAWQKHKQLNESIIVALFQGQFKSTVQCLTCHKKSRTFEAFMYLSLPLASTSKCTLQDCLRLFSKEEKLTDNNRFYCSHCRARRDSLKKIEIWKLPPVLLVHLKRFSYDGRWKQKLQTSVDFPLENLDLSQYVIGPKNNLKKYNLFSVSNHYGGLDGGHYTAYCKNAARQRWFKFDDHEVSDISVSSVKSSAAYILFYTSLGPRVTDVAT
Put plainly: USP8 activity assay (Ub-AMC). It counts as biochemical. The following applies: 300 nM Ub-AMC, 1.36 nM enzyme. The source says: The cDNA encoding USP8 was obtained by PCR amplification from placenta mRNA. USP8 cDNA was subcloned by PCR into a baculovirus expression vector (pFastBac-HT; Invitrogen). A cDNA encoding a mutated USP8 was generated by mutagenic PCR. The corresponding protein encodes a cysteine to alanine substitution at residue 786. The sequences were ascertained by sequencing of the entire open reading frame. Bacmids encoding USP8 were generated following DH10bac transposition. The corresponding bacmids were transfected into insect cells (Sf9). Viruses were recovered from culture supernatant and amplified twice. Insect cells (Sf9 or High Five; Invitrogen) were infected for 72 hours. Total cell lysates were harvested and lyzed in lysis buffer (Tris HCl 50 mM pH 7.6; 0.75% NP40; 500 mM NaCl; 10% glycerol; 1 mM DTT; 10 mM imidazole; Protease Inhibitor Cocktail; AEBSF 20 μg·ml^−1; Aprotinin 10 μg·ml^−1). Proteins were affinity purified on metal affinity resins (Talon Metal affinity resin; BD Biosciences). Bound materials were extensively washed in wash buffer (50 mM Sodium Phosphate pH 7.0; 300 mM NaCl; 10 mM imidazole; 0.5% Triton X-100; 10% glycerol) and eluted from the resin in 250 mM imidazole-containing wash buffer. Proteins were dialyzed in dialysis buffer (Tris HCl pH 7.6 20 mM; NaCl 200 mM; DTT 1 mM; EDTA 1 mM; 10% Glycerol). Proteins purifications were analyzed on 4-12% NuPAGE (Invitrogen).
USP8 was diluted in USP buffer (50 mM Tris HCl; 0.5 mM EDTA; 5 mM DTT; 0.01% Triton X-100; Bovine Serum Albumin 0.05 mg·ml^−1 pH 8.8). Compounds stocks (100 mM) were stored at −20° C. in DMSO. Compounds were tested at different concentrations: from […] to 91 nM.
Reactions were performed as duplicates in Black 384 well plates (small volume microplates; Greiner; 10 μl final reaction volume). The substrate concentration for USP8 was 300 nM Ub-AMC (Boston Biochem). The concentration of the enzyme (USP8) in specificity assays was 1.36 nM. The concentrations were determined in order to perform specificity assays under initial velocities at fixed substrate concentration. Compounds were pre-incubated with enzymes for 30 minutes at 25° C. Reactions were initiated by addition of substrate to the plates containing the enzymes (+/−compounds) diluted in assay buffer. Reactions were incubated for 60 minutes at 37° C. Reactions were stopped by adding acetic acid (100 mM final). Readings were performed on a Pherastar Fluorescent Reader (BMG). λ Emission 380 nm: λ Excitation=460 nm. Data (mean values+/−standard deviation) were analyzed as % of control (no compound) and plotted as percentage versus the Log of the compound concentration using GraphPad (Prism). Data were fitted to a sigmoidal model (variable slope).
The IC50 is the concentration needed to halve the response being measured. The low end stands for higher potency, the high end for lower potency. `Cc1cccc(CN2CCC(CNC(=O)c3ccc4c(Cl)c5c(nc4c3)CCCC5)CC2)c1` [Example 1, 9-Chloro-5,6,7,8-tetrahydro-acridine-3-carboxylic acid [1-(3-methyl-benzyl)-piperidin-4-ylmethyl]-amide]: the IC50 was greater than 200 µM. Take `CCCN(CCC)CCNC(=O)c1ccc2c(Cl)c3c(nc2c1)CCCC3` [Example 3, 9-Chloro-5,6,7,8-tetrahydro-acridine-3-carboxylic acid (2-dipropylamino-ethyl)-amide]: the IC50 is greater than 200 µM. For `CCCCN(CC)CCNC(=O)c1ccc2c(Cl)c3c(nc2c1)CCCC3` [Example 4, 9-Chloro-5,6,7,8-tetrahydro-acridine-3-carboxylic acid [2-(butyl-ethyl-amino)-ethyl]-amide] the value was greater than 200 µM. `CCN(CCCNC(=O)c1ccc2c(Cl)c3c(nc2c1)CCCC3)Cc1ccccc1` [Example 5, 9-Chloro-5,6,7,8-tetrahydro-acridine-3-carboxylic acid [3-(benzyl-ethyl-amino)-propyl]-amide]: the IC50 was greater than 200 µM. In the case of `CCCN(CCC)CCCNC(=O)c1ccc2c(Cl)c3c(nc2c1)CCCC3` [Example 6, 9-Chloro-5,6,7,8-tetrahydro-acridine-3-carboxylic acid (3-dipropylamino-propyl)-amide], the IC50 was greater than 200 µM. `CCN(CC)CCNC(=O)c1ccc2c(Cl)c3c(nc2c1)CCCC3` [Example 7, 9-Chloro-5,6,7,8-tetrahydro-acridine-3-carboxylic acid (2-diethylamino-ethyl)-amide] had a 50% inhibitory concentration (IC50) greater than 200 µM. Regarding `O=C(NCCCN1CCCC1)c1ccc2c(Cl)c3c(nc2c1)CCCC3` [Example 8, 9-Chloro-5,6,7,8-tetrahydro-acridine-3-carboxylic acid (3-pyrrolidin-1-yl-propyl)-amide], the IC50 was greater than 200 µM. The molecule `CC1CCCC(C)N1CCCNC(=O)c1ccc2c(Cl)c3c(nc2c1)CCCC3` (stereo not drawn) [Example 9, 9-Chloro-5,6,7,8-tetrahydro-acridine-3-carboxylic acid [3-(2,6-dimethyl-piperidin-1-yl)-propyl]-amide] had an IC50 greater than 200 µM. Regarding `CCN(CC)CCCNC(=O)c1ccc2c(Cl)c3c(nc2c1)CCCC3` [Example 10, 9-Chloro-5,6,7,8-tetrahydro-acridine-3-carboxylic acid (3-diethylamino-propyl)-amide], the 50% inhibitory concentration (IC50) is greater than 200 µM. For `CN(C)CCNC(=O)c1ccc2c(Cl)c3c(nc2c1)CCCC3` [Example 11, 9-Chloro-5,6,7,8-tetrahydro-acridine-3-carboxylic acid (2-dimethylamino-ethyl)-amide], the IC50 is greater than 200 µM. Molecule `O=C(c1ccc2c(Cl)c3c(nc2c1)CCCC3)N1CCCCCC1` [Example 12, Azepan-1-yl-(9-chloro-5,6,7,8-tetrahydro-acridin-3-yl)-methanone] came in with an IC50 greater than 200 µM.

In the case of `CCCN1CCN(CCCNC(=O)c2ccc3c(Cl)c4c(nc3c2)CCCC4)CC1` [Example 13, 9-Chloro-5,6,7,8-tetrahydro-acridine-3-carboxylic acid [3-(4-propyl-piperazin-1-yl)-propyl]-amide], the IC50 is greater than 200 µM.

`CN(CCCNC(=O)c1ccc2c(Cl)c3c(nc2c1)CCCC3)Cc1ccccc1` [Example 14, 9-Chloro-5,6,7,8-tetrahydro-acridine-3-carboxylic acid [3-(benzyl-methyl-amino)-propyl]-amide] displayed an IC50 greater than 200 µM. As to `CN1CCN(CCCNC(=O)c2ccc3c(Cl)c4c(nc3c2)CCCC4)CC1` [Example 15, 9-Chloro-5,6,7,8-tetrahydro-acridine-3-carboxylic acid [3-(4-methyl-piperazin-1-yl)-propyl]-amide], the IC50 was greater than 200 µM. For the molecule `O=C(c1ccc2c(Cl)c3c(nc2c1)CCCC3)N1CCC(N2CCCCC2)CC1` [Example 16, [1,4′]Bipiperidinyl-1′-yl-(9-chloro-5,6,7,8-tetrahydro-acridin-3-yl)-methanone], the IC50 is greater than 200 µM.
